US7205150B2, “Transgenic plants over-expressing plant ADP-glucose pyrophosphatase” (Universidad Publica de Navarra, priority 2000, dated 2007)
“Also recorded” adds a separate entry of the source.

tested on: AGPPase (soluble and particulate isoforms); test: AGPPase enzymatic assay (two-step spectrophotometric determination of G1P produced from ADPG); assay type: biochemical, barley (Hordeum vulgare), tomato (Lycopersicon sculentum); conditions: not given

| Inhibition of AGPPase | Hydrolysis / recognition as substrate by AGPPase | Compound | Effect of typical phosphodiesterase inhibitors (reducing and chelating agents) on AGPPase activity |
| --- | --- | --- | --- |
| inhibited |  | Nc1ncnc2c1ncn2[C@@H]1O[C@H](COP(=O)(O)OP(=O)(O)OP(=O)(O)O)[C@@H](O)[C@H]1O [ATP] |  |
|  | recognise | Nc1nc2c(ncn2[C@@H]2O[C@H](COP(=O)(O)OP(=O)(O)O[C@H]3O[C@H](CO)[C@@H](O)[C@H](O)[C@H]3O)[C@@H](O)[C@H]2O)c(=O)[nH]1 [GDP-glucose] |  |
| inhibited | do not hydrolyse | Nc1ncnc2c1ncn2[C@@H]1O[C@H](COP(=O)(O)O)[C@@H](O)[C@H]1O [AMP] |  |
| inhibited |  | Nc1ncnc2c1ncn2[C@@H]1O[C@H](COP(=O)(O)OP(=O)(O)O)[C@@H](O)[C@H]1O [ADP] |  |
|  | recognises | Nc1ncnc2c1ncn2[C@@H]1O[C@H](COP(=O)(O)OP(=O)(O)O[C@H]2O[C@H](CO)[C@@H](O)[C@H](O)[C@@H]2O)[C@@H](O)[C@H]1O [ADP-mannose] |  |

The next lines start with the compound.

| Compound | Inhibition of AGPPase | Hydrolysis / recognition as substrate by AGPPase | Effect of typical phosphodiesterase inhibitors (reducing and chelating agents) on AGPPase activity |
| --- | --- | --- | --- |
| O=[N+]([O-])c1ccc(OP(=O)(O)Oc2ccc([N+](=O)[O-])cc2)cc1 [bis-PNPP, bis-paranitrophenylphosphate] |  | recognise |  |
| Nc1ncnc2c1ncn2[C@@H]1O[C@H](COP(=O)(O)OS(=O)(=O)O)[C@@H](OP(=O)(O)O)[C@H]1O [PAPS, 3′-phosphoadenosine 5′-phosphosulphate] |  | recognises; also recorded: catalyse the hydrolysis |  |
| O=C(O)[C@H](O)COP(=O)(O)O [3-phosphoglycerate] | inhibited | do not hydrolyse |  |
| Nc1nc2c(ncn2[C@@H]2O[C@H](COP(=O)(O)OP(=O)(O)O[C@H]3O[C@H](CO)[C@@H](O)[C@H](O)[C@@H]3O)[C@@H](O)[C@H]2O)c(=O)[nH]1 [GDP-mannose] |  | recognises |  |
| OCCS [β-mercaptoethanol] |  |  | not affected |
| arsenate | strongly inhibited |  |  |
| O=C[C@H](O)[C@@H](O)[C@H](O)[C@H](O)COP(=O)(O)O [G6P, glucose-6-phosphate] |  | do not hydrolyse |  |
| Nc1ncnc2c1ncn2[C@@H]1O[C@H](COP(=O)(O)OS(=O)(=O)O)[C@@H](O)[C@H]1O [APS, adenosine 5′phosphosulphate] |  | recognises; also recorded: catalyse the hydrolysis; also recorded: preferred substrates |  |
| Nc1ncnc2c1ncn2[C@@H]1O[C@H](COP(=O)(O)OP(=O)(O)O[C@H]2O[C@H](CO)[C@@H](O)[C@H](O)[C@H]2O)[C@@H](O)[C@H]1O [ADPG, ADPglucose] |  | catalyse the hydrolysis; also recorded: preferred substrates |  |
| [O]=[Mo](=[O])([O-])[O-] [molybdate] | strongly inhibited |  |  |

same assay, conditions: Km of ADP-glucose relative to this substrate

| Km / affinity compared with ADP-glucose | Compound |
| --- | --- |
| four of five times lower | Nc1ncnc2c1ncn2[C@@H]1O[C@H](COP(=O)(O)OP(=O)(O)OC[C@H]2OC(O)[C@H](O)[C@@H]2O)[C@@H](O)[C@H]1O (some centres unmarked) [ADP-ribose] |
| similar | Nc1ncnc2c1ncn2[C@@H]1O[C@H](COP(=O)(O)OS(=O)(=O)O)[C@@H](O)[C@H]1O [APS, adenosine 5′phosphosulphate] |

same assay, conditions: read-out: Michaelis-Menten constant (Km)

| Compound | Km [µM] |
| --- | --- |
| Nc1ncnc2c1ncn2[C@@H]1O[C@H](COP(=O)(O)OP(=O)(O)O[C@H]2O[C@H](CO)[C@@H](O)[C@H](O)[C@H]2O)[C@@H](O)[C@H]1O [ADPG, ADPglucose] | 500 |
